We go through 15 molecules from patent US9012493B2, “1-heterodiene derivative and pest control agent” (Nippon Soda Co., Ltd., priority 2009, dated 2015).

The first assay has as its system Sweetpotato Whitefly (Bemisia Tabaci). Nature of the assay: Efficacy test against sweetpotato whitefly, sprayed tomato leaf. Type of assay: in vivo. Particulars: 125 ppm, emulsifiable concentrate diluted with water, adults (type B), after 2 days, 25° C. The method, then:
(§1) Test Examples of the pest control agent thus obtained according to the present invention are shown below. In respective Test Examples, the insecticidal rate (%) was determined by the following calculation equation. Insecticidal rate (%)=(number of dead pests/number of released pests)×100
The emulsifiable concentrate obtained according to Formulation of Formulation Example 2 was diluted with water so as to control the concentration of the compound to 125 ppm. The diluted solution was sprayed over a tomato leaf obtained by cutting and then air-dried. Using absorbent cotton, the leaf was fixed to a flask so that a front surface of the leaf faces upward. Seven pairs of adults of sweetpotato whitefly (type B) were inoculated in this container, and the container was placed in a temperature-controlled room at a temperature of 25° C. and a humidity of 65%. After 2 days, life and death were examined and the insecticidal rate was determined. The test was repeated twice.
Regarding `C=C1SC(=Nc2ccc(C)cc2)C(=CSc2cccc(Br)c2)CC1(C)C` [Compound 2-101], the insecticidal rate worked out at 100%.

As to `C=C1CCC(=CSc2ccccc2)C(=[NH+]c2ccc(C)cc2)S1.F[B-](F)(F)F` [Compound 2-14], the insecticidal rate came to 100%.

Turning to `C=C1SC(=Nc2ccc(C)cc2)C(=CSc2ccc(F)cc2)CC1(C)C` [Compound 2-48], the insecticidal rate came out at 100%.

`C=C1SC(=Nc2ccc(C)cc2)C(=CSc2cccs2)CC1(C)C` [Compound 2-71] yielded an insecticidal rate of 100%.

Molecule `C=C1SC(=Nc2ccc(C)cc2)C(=CSc2ccccc2Br)CC1(C)C` [Compound 2-102] had an insecticidal rate of 100%.

Molecule `C=C1SC(=Nc2ccc(C)cc2)C(=CSc2cccnc2)CC1(C)C` (mixture of isomers) [Compound 6-6] had an insecticidal rate of 100%.

`C=C1SC(=Nc2ccc(OC)cc2)C(=CSc2ccccn2)CC1(C)C` [Compound 2-50] came in with an insecticidal rate of 100%.

Molecule `CC(C)=C1CCC(=CSc2ccc(F)cc2)C(=Nc2ccc(C)cc2)S1` (mixture of isomers) [Compound 6-2] yielded an insecticidal rate of 100%.

The molecule `C=C1SC(=Nc2ccc(C)cc2)C(=CSc2ccncc2)CC1(C)C` [Compound 2-92] returned an insecticidal rate of 100%.

As for `C=C1SC(=Nc2ccc(C)cc2)C(=CSc2c(C)cccc2C)CC1(C)C` [Compound 2-119], the insecticidal rate is reported as 100%.

Turning to `C=C1SC(=Nc2ccc(C)cc2)C(=CSc2ccc(F)cc2F)CC1(C)C` (mixture of isomers) [Compound 6-7], the insecticidal rate came to 100%.

As to `C=C1SC(=Nc2ccc(C)cc2)C(=CSc2cccc(C#N)c2)CC1(C)C` [Compound 2-106], the insecticidal rate is recorded as 100%.

Molecule `C=C1SC(=Nc2ccc(C)cc2OC)C(=CSc2ccccc2)CC1(C)C` [Compound 2-59] registered an insecticidal rate of 100%.

The next assay concerns Cotton Aphid (Aphis Gossypii). Nature of the assay: Efficacy test against cotton aphid, spray on cucumber plant. Type of assay: in vivo. The conditions noted are these: 125 ppm, emulsifiable concentrate diluted with water, sprayed over cucumber plant with nymphs, after 5 days, 25° C. The method, then:
as §1
The emulsifiable concentrate obtained according to Formulation of Formulation Example 2 was diluted with water so as to control the concentration of the compound to 125 ppm. Adults of cotton aphids were inoculated to a cucumber plant (approximately 10 days after sprouting) sown in a 3 sun/size pot (9 cm). After 1 day, adult aphids were removed and the diluted solution was sprayed over the cucumber plant on which delivered nymphs are parasitic. The pot was placed in a temperature-controlled room at a temperature of 25° C. and a humidity of 65%. After 5 days, life and death were examined and the insecticidal rate was determined. The test was repeated twice.
Consider `C=C1SC(=Nc2ccc(OC)cc2)C(=CSc2cccs2)CC1(C)C` [Compound 2-51], for which the insecticidal rate came out at 100%.

`C=C1SC(=Nc2ccc(C)cc2)C(=CSc2nccs2)CC1(C)C` [Compound 2-73] gave an insecticidal rate of 100%.

As to `C=C1CCC(=CSc2ccccc2)C(=[NH+]c2ccc(C)cc2)S1.F[B-](F)(F)F` [Compound 2-14], the insecticidal rate turned out to be 100%.

As for `C=C1SC(=Nc2ccc(C)cc2)C(=CSc2ccc(F)cc2)CC1(C)C` [Compound 2-48], the insecticidal rate was determined as 100%.

Consider `C=C1SC(=Nc2ccc(C)cc2)C(=CSc2cccs2)CC1(C)C` [Compound 2-71], for which the insecticidal rate turned out to be 100%.

The molecule `C=C1SC(=Nc2ccc(OC)cc2)C(=CSc2ccccn2)CC1(C)C` [Compound 2-50] had an insecticidal rate of 100%.

A further assay deals with Twospotted Spider Mite (Tetranychus Urticae Koch). Briefly: Efficacy test against twospotted spider mite, spray on kidney bean plant. Type of assay: in vivo. The conditions noted are these: 125 ppm, wettable powder diluted with water, sprayed, female adults with resistance to an organophosphorus agent on kidney bean, after 3 days. How it is done: The wettable powder obtained according to Formulation of Formulation Example 1 was diluted with water so as to control the concentration of the compound to 125 ppm. Seventeen female adults of twospotted spider mite with resistance to an organophosphorus agent were inoculated on a first true leaf of a kidney bean plant (approximately 7 to 10 days after sprouting) sown in a 3 sun/size pot (9 cm). The diluted solution was sprayed. The pot was placed in a temperature-controlled room at a temperature of 25° C. and a humidity of 65%. After 3 days, the adulticidal rate was examined. The test was repeated twice.
Molecule `C=C1SC(=Nc2ccc(OC)cc2)C(=CSc2cccs2)CC1(C)C` [Compound 2-51] returned an adulticidal rate of 100%.

Take `C=C1SC(=Nc2ccc(C)cc2)C(=CSc2cccc(Br)c2)CC1(C)C` [Compound 2-101]: the adulticidal rate is reported as 100%.

Molecule `C=C1SC(=Nc2ccc(C)cc2)C(=CSc2nccs2)CC1(C)C` [Compound 2-73] gave an adulticidal rate of 100%.

`C=C1CCC(=CSc2ccccc2)C(=[NH+]c2ccc(C)cc2)S1.F[B-](F)(F)F` [Compound 2-14] gave an adulticidal rate of 100%.

Consider `C=C1SC(=Nc2ccc(C)cc2)C(=CSc2ccc(F)cc2)CC1(C)C` [Compound 2-48], for which the adulticidal rate stood at 100%.

`C=C1SC(=Nc2ccc(C)cc2)C(=CSc2cccs2)CC1(C)C` [Compound 2-71] gave an adulticidal rate of 100%.

Consider `C=C1SC(=Nc2ccc(C)cc2)C(=CSc2ccccc2Br)CC1(C)C` [Compound 2-102], for which the adulticidal rate worked out at 100%.

The molecule `C=C1SC(=Nc2ccc(C)cc2)C(=CSc2cccnc2)CC1(C)C` (mixture of isomers) [Compound 6-6] displayed an adulticidal rate of 100%.

In turn, `C=C1SC(=Nc2ccc(OC)cc2)C(=CSc2ccccn2)CC1(C)C` [Compound 2-50] returned an adulticidal rate of 100%.

The molecule `CC(C)=C1CCC(=CSc2ccc(F)cc2)C(=Nc2ccc(C)cc2)S1` (mixture of isomers) [Compound 6-2] registered an adulticidal rate of 100%.

In the case of `C=C1SC(=Nc2ccc(C)cc2)C(=CSc2ccncc2)CC1(C)C` [Compound 2-92], the adulticidal rate worked out at 100%.

Molecule `C=C1SC(=Nc2ccc(C)cc2)C(=CSc2c(C)cccc2C)CC1(C)C` [Compound 2-119] had an adulticidal rate of 100%.

`C=C1SC(=Nc2ccc(C)cc2)C(=CSc2ccc(F)cc2F)CC1(C)C` (mixture of isomers) [Compound 6-7]: the adulticidal rate was found to be 100%.

The molecule `C=C1SC(=Nc2ccc(C)cc2)C(=CSc2cccc(C#N)c2)CC1(C)C` [Compound 2-106] displayed an adulticidal rate of 100%.

Consider `C=C1SC(=Nc2ccc(C)cc2OC)C(=CSc2ccccc2)CC1(C)C` [Compound 2-59], for which the adulticidal rate was found to be 100%.

In the next assay the test system is Rice Armyworm (Mythimna Separata). Nature of the assay: Efficacy test against rice armyworm, corn leaf dip. In kind it is in vivo. Particulars: 125 ppm, emulsifiable concentrate diluted with water, corn leaves immersed, second instar larvae, after 5 days, 25° C. The method, then:
as §1
The emulsifiable concentrate obtained according to Formulation of Formulation Example 2 was diluted with water so as to control the concentration of the compound to 125 ppm. Leaves of corn were immersed in this diluted solution for 30 seconds and then air-dried. The leaves were put in a petri dish on which a filter paper is laid, and then five second instar larvae of rice armyworm were inoculated. After covering the petri dish with a glass lid, the petri dish was placed in a temperature-controlled room at a temperature of 25° C. and a humidity of 65%. After 5 days, life and death were examined and the insecticidal rate was determined. The test was repeated twice.
In turn, `C=C1SC(=Nc2ccc(C)cc2)C(=CSc2cccc(Br)c2)CC1(C)C` [Compound 2-101] yielded an insecticidal rate of 100%.

`C=C1SC(=Nc2ccc(C)cc2)C(=CSc2nccs2)CC1(C)C` [Compound 2-73] came in with an insecticidal rate of 100%.

In the case of `C=C1CCC(=CSc2ccccc2)C(=[NH+]c2ccc(C)cc2)S1.F[B-](F)(F)F` [Compound 2-14], the insecticidal rate was determined as 100%.

`C=C1SC(=Nc2ccc(C)cc2)C(=CSc2ccc(F)cc2)CC1(C)C` [Compound 2-48]: the insecticidal rate is given as 100%.

On to `C=C1SC(=Nc2ccc(C)cc2)C(=CSc2cccs2)CC1(C)C` [Compound 2-71], for which the insecticidal rate was found to be 100%.

The molecule `C=C1SC(=Nc2ccc(C)cc2)C(=CSc2ccccc2Br)CC1(C)C` [Compound 2-102] displayed an insecticidal rate of 100%.

In turn, `C=C1SC(=Nc2ccc(C)cc2)C(=CSc2cccnc2)CC1(C)C` (mixture of isomers) [Compound 6-6] had an insecticidal rate of 100%.

The molecule `CC(C)=C1CCC(=CSc2ccc(F)cc2)C(=Nc2ccc(C)cc2)S1` (mixture of isomers) [Compound 6-2] registered an insecticidal rate of 100%.

`C=C1SC(=Nc2ccc(C)cc2)C(=CSc2ccncc2)CC1(C)C` [Compound 2-92] returned an insecticidal rate of 100%.

As for `C=C1SC(=Nc2ccc(C)cc2)C(=CSc2c(C)cccc2C)CC1(C)C` [Compound 2-119], the insecticidal rate is 100%.

`C=C1SC(=Nc2ccc(C)cc2)C(=CSc2ccc(F)cc2F)CC1(C)C` (mixture of isomers) [Compound 6-7] displayed an insecticidal rate of 100%.

With `C=C1SC(=Nc2ccc(C)cc2)C(=CSc2cccc(C#N)c2)CC1(C)C` [Compound 2-106], the insecticidal rate turned out to be 100%.

In turn, `C=C1SC(=Nc2ccc(C)cc2OC)C(=CSc2ccccc2)CC1(C)C` [Compound 2-59] displayed an insecticidal rate of 100%.
